Test results taken from ChEMBL document CHEMBL1201861, “Genomics of Drug Sensitity in Cancer screening data, Wellcome Trust Sanger Institute”.

Key:
Assay in all cases: cells
[1] = tested on: NCI-N87; assay type: functional, cell-based, Homo sapiens; conditions: Homo sapiens, NCI-N87;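 also: growth inhibition of human NCI-N87 cells, read out with a cell viability assay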
Description: SANGER: Inhibition of human NCI-N87 cell growth in a cell viability assay.

[2] = tested on: LB2518-MEL; assay type: functional, cell-based, Homo sapiens; conditions: Homo sapiens, LB2518-MEL;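 also: growth inhibition of human LB2518-MEL cells, measured with a cell viability assay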
Description: SANGER: Inhibition of human LB2518-MEL cell growth in a cell viability assay.

[3] = tested on: EGI-1; assay type: functional, cell-based, Homo sapiens; conditions: Homo sapiens, EGI-1;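 also: cell viability readout used to gauge growth inhibition of EGI-1 cells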
Description: SANGER: Inhibition of human EGI-1 cell growth in a cell viability assay.

[4] = tested on: KURAMOCHI; assay type: functional, cell-based; conditions: Homo sapiens;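 also: growth inhibition of KURAMOCHI cells, read out with a cell viability assay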
Description: SANGER: Inhibition of human KURAMOCHI cell growth in a cell viability assay.

[5] = tested on: NCI-H810; assay type: functional, cell-based, Homo sapiens; conditions: Homo sapiens, NCI-H810;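 also: IC50 reflects inhibition of cancer cell line growth, read out with a cell viability assay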
Description: SANGER: Inhibition of human NCI-H810 cell growth in a cell viability assay.

[6] = tested on: SK-NEP-1; assay type: functional, cell-based; conditions: Homo sapiens;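 also: growth inhibition of human SK-NEP-1 cells, read out by a cell viability assay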
Description: SANGER: Inhibition of human SK-NEP-1 cell growth in a cell viability assay.

[7] = tested on: Capan-2; assay type: functional, cell-based, Homo sapiens; conditions: Homo sapiens, Capan-2;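 also: Capan-2 cell growth inhibition, read out with a viability assay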
Description: SANGER: Inhibition of human Capan-2 cell growth in a cell viability assay.

[8] = tested on: HT; assay type: functional, cell-based; conditions: Homo sapiens
Description: SANGER: Inhibition of human HT cell growth in a cell viability assay.

[9] = tested on: KNS-42; assay type: functional, cell-based, Homo sapiens; conditions: Homo sapiens, KNS-42;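 also: growth inhibition of KNS-42 cells, read out with a cell viability assay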
Description: SANGER: Inhibition of human KNS-42 cell growth in a cell viability assay.

[10] = tested on: SNU1; assay type: functional, cell-based; conditions: Homo sapiens;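 also: growth inhibition of human NCI-SNU-1 cells, measured with a cell viability assay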
Description: SANGER: Inhibition of human NCI-SNU-1 cell growth in a cell viability assay.

[11] = tested on: KARPAS-299; assay type: functional, cell-based; conditions: Homo sapiens
Description: SANGER: Inhibition of human KARPAS-299 cell growth in a cell viability assay.

[12] = tested on: CAL-120; assay type: functional, cell-based, Homo sapiens; conditions: Homo sapiens, CAL-120;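 also: cell growth inhibition, read out as cell viability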
Description: SANGER: Inhibition of human CAL-120 cell growth in a cell viability assay.

[13] = tested on: NCI-H209; assay type: functional, cell-based; conditions: Homo sapiens;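 also: growth inhibition of human NCI-H209 cells, measured by a cell viability assay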
Description: SANGER: Inhibition of human NCI-H209 cell growth in a cell viability assay.

[14] = tested on: UACC-893; assay type: functional, cell-based, Homo sapiens; conditions: Homo sapiens, UACC-893
Description: SANGER: Inhibition of human UACC-893 cell growth in a cell viability assay.

[15] = tested on: ES5; assay type: functional, cell-based, Homo sapiens; conditions: Homo sapiens, ES5;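 also: growth inhibition of human ES5 cells, read out by a cell viability assay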
Description: SANGER: Inhibition of human ES5 cell growth in a cell viability assay.

[16] = tested on: HAL-01; assay type: functional, cell-based; conditions: Homo sapiens;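 also: growth inhibition of human HAL-01 cells, read out with a cell viability assay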
Description: SANGER: Inhibition of human HAL-01 cell growth in a cell viability assay.

[17] = tested on: COLO-824; assay type: functional, cell-based, Homo sapiens; conditions: Homo sapiens, COLO-824
Description: SANGER: Inhibition of human COLO-824 cell growth in a cell viability assay.

[18] = tested on: EW-11; assay type: functional, cell-based, Homo sapiens; conditions: Homo sapiens, EW-11;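 also: growth inhibition of human EW-11 cells, measured with a cell viability assay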
Description: SANGER: Inhibition of human EW-11 cell growth in a cell viability assay.

[19] = tested on: TE-10; assay type: functional, cell-based, Homo sapiens; conditions: Homo sapiens, TE-10;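 also: growth inhibition of TE-10 cells, measured by a cell viability assay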
Description: SANGER: Inhibition of human TE-10 cell growth in a cell viability assay.

[20] = tested on: CAL-51; assay type: functional, cell-based, Homo sapiens; conditions: Homo sapiens, CAL-51;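 also: human CAL-51 cell line, growth inhibition read out via a cell viability assay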
Description: SANGER: Inhibition of human CAL-51 cell growth in a cell viability assay.

[21] = tested on: ES1; assay type: functional, cell-based, Homo sapiens; conditions: Homo sapiens, ES1;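 also: growth inhibition of ES1 cells, read out with a cell viability assay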
Description: SANGER: Inhibition of human ES1 cell growth in a cell viability assay.

[22] = tested on: HMV-2 cell line; assay type: functional, cell-based, Homo sapiens; conditions: Homo sapiens, HMV-2;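 also: growth inhibition of HMV-II cells, read out with a cell viability assay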
Description: SANGER: Inhibition of human HMV-II cell growth in a cell viability assay.

[23] = tested on: SK-HEP1; assay type: functional, cell-based, Homo sapiens, SK-HEP-1; conditions: Homo sapiens, SK-HEP1;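 also: cell viability readout used to quantify reduction in proliferation of human SK-HEP-1 cells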
Description: SANGER: Inhibition of human SK-HEP-1 cell growth in a cell viability assay.

[24] = tested on: HOP-92; assay type: functional, cell-based, Homo sapiens; conditions: Homo sapiens, HOP-92;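 also: cell viability readout, with IC50 reflecting inhibition of HOP-92 cell growth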
Description: SANGER: Inhibition of human HOP-92 cell growth in a cell viability assay.

[25] = tested on: Ca9-22; assay type: functional, cell-based, Homo sapiens; conditions: Homo sapiens, Ca9-22;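 also: growth inhibition of Ca9-22 cells, read out with a cell viability assay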
Description: SANGER: Inhibition of human Ca9-22 cell growth in a cell viability assay.

[26] = tested on: MN-60; assay type: functional, cell-based; conditions: Homo sapiens;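 also: growth inhibition of the MN-60 cell line, determined with a cell viability assay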
Description: SANGER: Inhibition of human MN-60 cell growth in a cell viability assay.

[27] = tested on: CAL-85-1; assay type: functional, cell-based; conditions: Homo sapiens;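 also: growth inhibition of human CAL-85-1 cells, read out with a cell viability assay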
Description: SANGER: Inhibition of human CAL-85-1 cell growth in a cell viability assay.

[28] = tested on: NCI-H1651; assay type: functional, cell-based, Homo sapiens; conditions: Homo sapiens, NCI-H1651;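 also: Read-out is a cell viability assay, with IC50 expressing inhibition of NCI-H1651 cell growth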
Description: SANGER: Inhibition of human NCI-H1651 cell growth in a cell viability assay.

[29] = tested on: NCI-H661; assay type: functional, cell-based, Homo sapiens; conditions: Homo sapiens, NCI-H661;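 also: cell viability assay read-out, IC50 being the concentration that inhibits growth of the cells by half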
Description: SANGER: Inhibition of human NCI-H661 cell growth in a cell viability assay.

[30] = tested on: HT-3; assay type: functional, cell-based, Homo sapiens; conditions: Homo sapiens, HT-3;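 also: growth inhibition measured with a cell viability readout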
Description: SANGER: Inhibition of human HT-3 cell growth in a cell viability assay.

[31] = tested on: NCI-H2126; assay type: functional, cell-based, Homo sapiens; conditions: Homo sapiens, NCI-H2126;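 also: growth inhibition of the cancer cell line, determined with a cell viability readout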
Description: SANGER: Inhibition of human NCI-H2126 cell growth in a cell viability assay.

[32] = tested on: COLO-741; assay type: functional, cell-based, Homo sapiens; conditions: Homo sapiens, COLO-741
Description: SANGER: Inhibition of human COLO-741 cell growth in a cell viability assay.

[33] = tested on: LU-134-A; assay type: functional, cell-based; conditions: Homo sapiens
Description: SANGER: Inhibition of human LU-134-A cell growth in a cell viability assay.

[34] = tested on: NCI-H520; assay type: functional, cell-based, Homo sapiens; conditions: Homo sapiens, NCI-H520;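 also: growth inhibition of NCI-H520 cells, measured by a cell viability assay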
Description: SANGER: Inhibition of human NCI-H520 cell growth in a cell viability assay.

[35] = tested on: D-263MG; assay type: functional, cell-based, Homo sapiens; conditions: Homo sapiens, D-263MG
Description: SANGER: Inhibition of human D-263MG cell growth in a cell viability assay.

[36] = tested on: KYSE-410; assay type: functional, cell-based, Homo sapiens; conditions: Homo sapiens, KYSE-410;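 also: growth inhibition of KYSE-410 cells, measured through a cell viability readout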
Description: SANGER: Inhibition of human KYSE-410 cell growth in a cell viability assay.

[37] = tested on: SK-N-FI; assay type: functional, cell-based, Homo sapiens; conditions: Homo sapiens, SK-N-FI;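 also: cell viability assay measuring growth inhibition of human SK-N-FI cells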
Description: SANGER: Inhibition of human SK-N-FI cell growth in a cell viability assay.

[38] = tested on: GMS-10; assay type: functional, cell-based, Homo sapiens; conditions: Homo sapiens, GMS-10;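 also: growth inhibition of GMS-10 cells, read out as cell viability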
Description: SANGER: Inhibition of human GMS-10 cell growth in a cell viability assay.

[39] = tested on: GI-ME-N; assay type: functional, cell-based, Homo sapiens; conditions: Homo sapiens, GI-ME-N;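 also: growth inhibition of human GI-ME-N cells, read out with a cell viability assay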
Description: SANGER: Inhibition of human GI-ME-N cell growth in a cell viability assay.

[40] = tested on: KINGS-1; assay type: functional, cell-based, Homo sapiens; conditions: Homo sapiens, KINGS-1;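 also: cell viability assay measuring suppression of KINGS-1 cell growth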
Description: SANGER: Inhibition of human KINGS-1 cell growth in a cell viability assay.

[41] = tested on: KP-N-YS; assay type: functional, cell-based; conditions: Homo sapiens;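 also: cell viability assay measuring inhibition of cell line growth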
Description: SANGER: Inhibition of human KP-N-YS cell growth in a cell viability assay.

[42] = tested on: GI-1; assay type: functional, cell-based, Homo sapiens; conditions: Homo sapiens, GI-1;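 also: growth inhibition of human GI-1 cells, measured with a cell viability readout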
Description: SANGER: Inhibition of human GI-1 cell growth in a cell viability assay.

[43] = tested on: SW626; assay type: functional, cell-based, Homo sapiens; conditions: Homo sapiens, SW626;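 also: growth inhibition of SW626 cells, measured with a cell viability assay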
Description: SANGER: Inhibition of human SW626 cell growth in a cell viability assay.

[44] = tested on: NCI-H1770; assay type: functional, cell-based; conditions: Homo sapiens;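 also: growth inhibition of NCI-H1770 cells determined with a viability readout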
Description: SANGER: Inhibition of human NCI-H1770 cell growth in a cell viability assay.

[45] = tested on: HCC1937; assay type: functional, cell-based, Homo sapiens; conditions: Homo sapiens, HCC1937;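 also: growth inhibition measured with a cell viability read-out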
Description: SANGER: Inhibition of human HCC1937 cell growth in a cell viability assay.

[46] = tested on: LU-139; assay type: functional, cell-based; conditions: Homo sapiens
Description: SANGER: Inhibition of human LU-139 cell growth in a cell viability assay.

[47] = tested on: NCI-H446; assay type: functional, cell-based; conditions: Homo sapiens;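 also: growth inhibition of NCI-H446 cells determined by a cell viability assay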
Description: SANGER: Inhibition of human NCI-H446 cell growth in a cell viability assay.

[48] = tested on: HC-1; assay type: functional, cell-based; conditions: Homo sapiens;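 also: growth inhibition of HC-1 cells measured by a cell viability assay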
Description: SANGER: Inhibition of human HC-1 cell growth in a cell viability assay.

[49] = tested on: OCUB-M; assay type: functional, cell-based, Homo sapiens; conditions: Homo sapiens, OCUB-M;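 also: growth inhibition of the cancer cell line, read out through a cell viability assay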
Description: SANGER: Inhibition of human OCUB-M cell growth in a cell viability assay.

Compound: CN(Cc1cnc2nc(N)nc(N)c2n1)c1ccc(C(=O)N[C@@H](CCC(=O)O)C(=O)O)cc1 [METHOTREXATE]
- IC50 [1]: > 0.2 µM
- IC50 [2]: > 0.2 µM
- IC50 [3]: > 0.2 µM
- IC50 [4]: > 0.2 µM
- IC50 [5]: > 0.2 µM
- IC50 [6]: 0.00482 µM
- IC50 [7]: > 0.2 µM
- IC50 [8]: 0.134 µM
- IC50 [9]: > 0.2 µM
- IC50 [10]: 0.00751 µM
- IC50 [11]: > 0.2 µM
- IC50 [12]: > 0.2 µM
- IC50 [13]: > 0.2 µM
- IC50 [14]: > 0.2 µM
- IC50 [15]: > 0.2 µM
- IC50 [16]: 0.0223 µM
- IC50 [17]: > 0.2 µM
- IC50 [18]: > 0.2 µM
- IC50 [19]: > 0.2 µM
- IC50 [20]: > 0.2 µM
- IC50 [21]: 0.0164 µM
- IC50 [22]: > 0.2 µM
- IC50 [23]: > 0.2 µM
- IC50 [24]: > 0.2 µM
- IC50 [25]: > 0.2 µM
- IC50 [26]: 0.0657 µM
- IC50 [27]: > 0.2 µM
- IC50 [28]: > 0.2 µM
- IC50 [29]: > 0.2 µM
- IC50 [30]: 0.0694 µM
- IC50 [31]: > 0.2 µM
- IC50 [32]: 0.162 µM
- IC50 [33]: 0.0887 µM
- IC50 [34]: > 0.2 µM
- IC50 [35]: > 0.2 µM
- IC50 [36]: > 0.2 µM
- IC50 [37]: > 0.2 µM
- IC50 [38]: > 0.2 µM
- IC50 [39]: 0.147 µM
- IC50 [40]: > 0.2 µM
- IC50 [41]: > 0.2 µM
- IC50 [42]: > 0.2 µM
- IC50 [43]: > 0.2 µM
- IC50 [44]: 0.00198 µM
- IC50 [45]: > 0.2 µM
- IC50 [46]: > 0.2 µM
- IC50 [47]: > 0.2 µM
- IC50 [48]: 0.0696 µM
- IC50 [49]: > 0.2 µM
